This note sets out measurements from patent US12577247B2 (BUGWORKS RESEARCH, INC., priority 2021, dated 2026).

For assay [1], the target named is T1, A2B receptor (Homo sapiens, UniProt P29275).
T1 sequence (P29275 1-332): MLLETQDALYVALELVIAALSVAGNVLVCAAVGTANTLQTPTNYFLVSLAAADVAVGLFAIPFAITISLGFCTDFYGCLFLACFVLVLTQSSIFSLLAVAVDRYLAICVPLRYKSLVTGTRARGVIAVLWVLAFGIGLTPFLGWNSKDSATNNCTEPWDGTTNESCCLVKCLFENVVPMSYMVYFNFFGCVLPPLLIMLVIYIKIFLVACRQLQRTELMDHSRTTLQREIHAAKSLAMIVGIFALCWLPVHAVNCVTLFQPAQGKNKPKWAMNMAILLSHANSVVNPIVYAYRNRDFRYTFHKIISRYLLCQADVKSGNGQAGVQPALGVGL
Put plainly: A2bR antagonism IC50, cAMP TR-FRET (Lance Ultra) in HEK-293 cells, NECA as agonist. Also on record: host or cells: HEK-293. The assay is classed as cell-based. To be noted: HEK-293 cells expressing A2B receptor; agonist NECA 30 nM (EC90); inhibition of cAMP.

Assay [2] concerns the target T1, A2B receptor. As to the kind of experiment: A2bR antagonism IC50, cAMP TR-FRET in HEK-293 cells, high concentration of adenosine (30 μM).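 Further: compounds preincubated 10 min with cells, then adenosine stimulation 30 min at room temperature in buffer with Rolipram 100 µM and EHNA 30 µM, TR-FRET read after 1 h.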 The note with it: A2BR IC50 (nM) (@30 μM Adenosine), HEK-293 cells expressing A2B receptor; agonist adenosine 30 μM; 2% HSA; inhibition of cAMP.
In the next assay the target is T2, A2A receptor (Homo sapiens, UniProt P29274).
T2 construct: host or cells: HEK-293
Put plainly: A2aR antagonism IC50, cAMP TR-FRET in HEK-293 cells, high concentration of adenosine (30 μM).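 Further: compounds added 10 min before adenosine, then 30 min stimulation at room temperature in buffer with 100 µM rolipram and 30 µM EHNA, signal read 1 h after detection reagents.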 The assay is classed as cell-based. To be noted: HEK-293 cells expressing A2A receptor; agonist adenosine 30 μM; 2% HSA; inhibition of cAMP; read-out: A2AR IC50 (nM) (@30 μM Adenosine).

The structures appear in SMILES notation. Where only a bound is given, the exact number is not on record here.

T2 sequence (P29274 whole entry): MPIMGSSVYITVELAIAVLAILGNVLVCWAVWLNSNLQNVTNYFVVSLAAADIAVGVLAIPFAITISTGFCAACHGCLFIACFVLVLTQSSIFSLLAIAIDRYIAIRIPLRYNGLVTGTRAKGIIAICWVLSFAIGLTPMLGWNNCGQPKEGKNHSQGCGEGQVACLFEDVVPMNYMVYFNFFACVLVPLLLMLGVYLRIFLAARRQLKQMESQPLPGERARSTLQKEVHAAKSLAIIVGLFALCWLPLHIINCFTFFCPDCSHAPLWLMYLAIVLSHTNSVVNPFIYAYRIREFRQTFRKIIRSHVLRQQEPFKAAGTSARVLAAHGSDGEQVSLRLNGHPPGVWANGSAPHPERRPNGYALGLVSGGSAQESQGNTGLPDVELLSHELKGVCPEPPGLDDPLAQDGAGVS
Procedure for A2A receptor: A Time-Resolved Fluorescence Energy Transfer (TR-FRET) assay was used to show the inhibition of this cAMP production in HEK cells upon treatment with compounds of the Formula I of the present disclosure.
HEK-293 cells expressing A2A receptor (#ES-011-C) or A2B receptor (#ES 013-C) were obtained from PerkinElmer. Cells were maintained in DMEM medium supplemented with 10% FBS and 200 μg/mL of G418 at 37° C. and 5% CO2. The cells were cultured in antibiotic free medium for a period of 16-20 hours prior to the assay. All subsequent steps of the assay are performed at room temperature (22-24° C.). […] About 1500 cells per well were pre-incubated for 10 minutes with the compounds of the present invention before adding the agonist Adenosine at a high concentration (30 μM) for a total stimulation time of 30 minutes. […] The assays were conducted in a stimulation buffer containing 1×DMEM, 5 mM HEPES, 2% Human serum albumin (HSA), 100 μM Rolipram and 30 μM erythro-9-(2-hydroxy-3-nonyl) adenine (EHNA). Serial dilutions of compounds were made in stimulation buffer to achieve a final concentration of high micromolar in a reaction volume of 10 μL. The total reaction volume was 10 μL (5 μL of cells, 2.5 μL of antagonist and 2.5 μL of agonist). […] The stimulation was ended, and the reaction completed by adding 5 μL of 4× Eu-cAMP tracer working solution and 5 μL of 4× ULight-anti-cAMP working solution. The TR FRET signal was measured after 1-hour incubation using a Tecan M1000 or a PerkinElmer Victor Nivo plate reader.

Take `CCc1c(C)nn2c(N)c(C#N)c(NC(C)Cc3cccc(C)n3)nc12` (racemic) [Example 24, 7-Amino-3-ethyl-2-methyl-5-((1-(6-methylpyridin-2-yl)propan-2-yl)amino) pyrazolo[1,5-a]pyrimidine-6-carbonitrile]: the IC50 at A2B receptor [1] came out at 2.5 nM.

Consider `CCc1c(C)nn2c(N)c(C#N)c(NCCc3ccn(C)n3)nc12` [Example 30], for which, on A2B receptor [1], the IC50 came to 4.5 nM.

As for `Cc1cccc(CC(C)Nc2nc3c(C)c(C)nn3c(N)c2C#N)n1` (single isomer, unassigned) [Example 15, 7-amino-2,3-dimethyl-5-{[1-(6-methylpyridin-2-yl)propan-2-yl]amino}pyrazolo[1,5-a]pyrimidine-6-carbonitrile], the half-inhibitory concentration (IC50) at A2B receptor [1] came to 102 nM.

Regarding `Cc1cncc(CCNc2nc3c(C)c(C)nn3c(N)c2C#N)n1` [Example 140, 7-amino-2,3-dimethyl-5-((2-(6-methylpyrazin-2-yl)ethyl)amino) pyrazolo[1,5-a]pyrimidine-6-carbonitrile], the IC50 is > 15000 nM at A2B receptor [2] and 6020 nM on A2A receptor.

In the case of `CCc1c(C)nn2c(N)c(C#N)c(NCCc3ccn(C4(CNCCO)CC4)n3)nc12` [Example 106, 7-amino-3-ethyl-5-((2-(1-(1-(((2-hydroxyethyl)amino)methyl)cyclopropyl)-1H-pyrazol-3-yl)ethyl)amino)-2-methylpyrazolo[1,5-a]pyrimidine-6-carbonitrile], the values for the IC50 on A2B receptor [2] and on A2A receptor were 4390 nM and 75 nM, respectively.

In the case of `CCc1c(C(F)F)nn2c(N)c(C#N)c(NCCc3ccn(C4CCC4CO)n3)nc12` (centres unmarked) [Example 102, 7-amino-2-(difluoromethyl)-3-ethyl-5-((2-(1-(2-(hydroxymethyl)cyclobutyl)-1H-pyrazol-3-yl)ethyl)amino) pyrazolo[1,5-a]pyrimidine-6-carbonitrile], the half-maximal inhibitory concentration (IC50) stood at 8300 nM at A2B receptor [2] and 804 nM on A2A receptor.

On to `CCc1c(C)nn2c(N)c(C#N)c(NCCc3cccc(CNCCO)n3)nc12` [Example 97, 7-amino-3-ethyl-5-((2-(6-(((2-hydroxyethyl)amino)methyl)pyridine-2-yl)ethyl)amino)-2-methylpyrazolo[1,5-a]pyrimidine-6-carbonitrile], for which the figures for the concentration for half-maximal inhibition (IC50) on A2B receptor [2] and at A2A receptor were 1430 nM and 451 nM, respectively.

For `Cc1nn2c(N)c(C#N)c(NCCc3ccn(C4COCC4CO)n3)nc2c1Cl` (centres unmarked) [Example 127, 7-amino-3-chloro-5-((2-(1-(4-(hydroxymethyl)tetrahydrofuran-3-yl)-1H-pyrazol-3-yl)ethyl)amino)-2-methylpyrazolo[1,5-a] pyrimidine-6-carbonitrile], the IC50 worked out at 2170 nM on A2B receptor [2] and 161 nM on A2A receptor.

With `CCc1c(C)nn2c(N)c(C#N)c(NCCc3cccn(CCC[S+](C)[O-])c3=O)nc12` (single isomer, unassigned; (-)) [Example 154a, (−)-7-amino-3-ethyl-2-methyl-5-((2-(1-(3-(methylsulfinyl)propyl)-2-oxo-1,2-dihydropyridin-3-yl)ethyl)amino) pyrazolo[1,5-a]pyrimidine-6-carbonitrile], the results for the half-inhibitory concentration (IC50) at A2B receptor [2] and at A2A receptor were 1540 nM and 1050 nM, respectively.

Take `Cc1nn2c(N)c(C#N)c(NCCc3cccn(CCCN)c3=O)nc2c1Cl` [Example 129, 7-amino-5-((2-(1-(3-aminopropyl)-2-oxo-1,2-dihydropyridin-3-yl)ethyl)amino)-3-chloro-2-methylpyrazolo[1,5-a]pyrimidine-6-carbonitrile]: the results for the half-inhibitory concentration (IC50) at A2B receptor [2] and at A2A receptor were 5660 nM and 237 nM, respectively.

Take `Cc1nn2c(N)c(C#N)c(NCCc3ccn(C4(CO)CC4)n3)nc2c1C1CC1` [Example 101, 7-amino-3-cyclopropyl-5-((2-(1-(1-(hydroxymethyl)cyclopropyl)-1H-pyrazol-3-yl)ethyl)amino)-2-methylpyrazolo[1,5-a]pyrimidine-6-carbonitrile]: the IC50 on A2B receptor [2] is > 15000 nM; at A2A receptor it was 2100 nM.

For the compound `CCc1c(C)nn2c(N)c(C#N)c(NCCc3ccn(CCCSC)n3)nc12` [Example 161, 7-amino-3-ethyl-2-methyl-5-((2-(1-(3-(methylthio)propyl)-1H-pyrazol-3-yl)ethyl)amino)pyrazolo[1,5-a]pyrimidine-6-carbonitrile], the IC50 came to 3970 nM on A2B receptor [2] and 2770 nM at A2A receptor.

As for `Cc1nn2c(N)c(C#N)c(NCCc3ccn(C4(CO)CC4)n3)nc2c1CC1CCC1` [Example 137, 7-amino-3-(cyclobutylmethyl)-5-((2-(1-(1-(hydroxymethyl)cyclopropyl)-1H-pyrazol-3-yl)ethyl)amino)-2-methylpyrazolo[1,5-a]pyrimidine-6-carbonitrile], the half-inhibitory concentration (IC50) on A2B receptor [2] was > 15000 nM; at A2A receptor, 820 nM.

`CCc1c(C)nn2c(N)c(C#N)c(NCCc3ccn(C4(CNCC[S+](C)[O-])CC4)n3)nc12` (single isomer, unassigned; (-)) [Example 163a, (−)-7-amino-3-ethyl-2-methyl-5-((2-(1-(1-(((2-(methylsulfinyl)ethyl)amino)methyl)cyclopropyl)-1H-pyrazol-3-yl)ethyl)amino) pyrazolo[1,5-a]pyrimidine-6-carbonitrile]: the figures for the half-maximal inhibitory concentration (IC50) on A2B receptor [2] and at A2A receptor were 11100 nM and 72 nM, respectively.

With `CCc1c(C)nn2c(N)c(C#N)c(NCCc3ccn(C4(CNC(C)=O)CC4)n3)nc12` [Example 147, N-((1-(3-(2-((7-amino-6-cyano-3-ethyl-2-methylpyrazolo[1,5-a]pyrimidin-5-yl)amino)ethyl)-1H-pyrazol-1-yl)cyclopropyl)methyl) acetamide], the figures for the IC50 at A2B receptor [2] and at A2A receptor were 9080 nM and 363 nM, respectively.

Turning to `CCCc1c(C)nn2c(N)c(C#N)c(NCCc3ccn(C4(CO)CC4)n3)nc12` [Example 158, 7-amino-5-((2-(1-(1-(hydroxymethyl)cyclopropyl)-1H-pyrazol-3-yl)ethyl)amino)-2-methyl-3-propylpyrazolo[1,5-a]pyrimidine-6-carbonitrile], the 50% inhibitory concentration (IC50) at A2B receptor [2] was found to be 3350 nM; on A2A receptor, 805 nM.

With `CCc1c(C)nn2c(N)c(C#N)c(NCCc3cccc(OCCO)n3)nc12` [Example 150, 7-amino-3-ethyl-5-((2-(6-(2-hydroxyethoxy)pyridin-2-yl)ethyl)amino)-2-methylpyrazolo[1,5-a] pyrimidine-6-carbonitrile], the concentration for half-maximal inhibition (IC50) at A2B receptor [2] was 1630 nM; at A2A receptor, 1150 nM.

Turning to `CCc1c(C)nn2c(N)c(C#N)c(NCCc3cccc(CCO)n3)nc12` [Example 139, 7-amino-3-ethyl-5-((2-(6-(2-hydroxyethyl)pyridine-2-yl)ethyl)amino)-2-methylpyrazolo[1,5-a]pyrimidine-6-carbonitrile], the IC50 worked out at 482 nM at A2B receptor [2] and 165 nM on A2A receptor.

As for `Cc1nn2c(N)c(C#N)c(NCCc3ccn(C4CCCC4CO)n3)nc2c1Cl` (centres unmarked) [Example 114, 7-amino-3-chloro-5-((2-(1-(2-(hydroxymethyl)cyclopentyl)-1H-pyrazol-3-yl)ethyl)amino)-2-methylpyrazolo[1,5-a]pyrimidine-6-carbonitrile], the IC50 at A2B receptor [2] amounted to 4380 nM; at A2A receptor it was 96 nM.

As for `CCc1c(C)nn2c(N)c(C#N)c(NCCc3cccn(CC4CC(O)C4)c3=O)nc12` (centres unmarked) [Example 128, 7-amino-3-ethyl-5-((2-(1-((3-hydroxycyclobutyl)methyl)-2-oxo-1,2-dihydropyridin-3-yl)ethyl)amino)-2-methylpyrazolo[1,5-a]pyrimidine-6-carbonitrile], the IC50 on A2B receptor [2] came out at 1110 nM; at A2A receptor it was 368 nM.

Turning to `CCc1c(C)nn2c(N)c(C#N)c(NCCc3ccn(C4CC(CO)C4)n3)nc12` (centres unmarked) [Example 123, 7-amino-3-ethyl-5-((2-(1-(3-(hydroxymethyl)cyclobutyl)-1H-pyrazol-3-yl)ethyl)amino)-2-methylpyrazolo[1,5-a]pyrimidine-6-carbonitrile], the 50% inhibitory concentration (IC50) on A2B receptor [2] came to 1580 nM; on A2A receptor, 405 nM.

With `CCc1c(C)nn2c(N)c(C#N)c(NCCc3ccn(C4COCC4CO)n3)nc12` (racemic) [Example 121, (+−)-7-amino-3-ethyl-5-((2-(1-(4-(hydroxymethyl)tetrahydrofuran-3-yl)-1H-pyrazol-3-yl)ethyl)amino)-2-methyl pyrazolo[1,5-a]pyrimidine-6-carbonitrile], the concentration for half-maximal inhibition (IC50) was found to be 895 nM on A2B receptor [2] and 245 nM on A2A receptor.

Take `Cc1nn2c(N)c(C#N)c(NCCc3ccn(C4(CNC(=O)CCO)CC4)n3)nc2c1Cl` [Example 99, N-((1-(3-(2-((7-amino-3-chloro-6-cyano-2-methylpyrazolo[1,5-a]pyrimidin-5-yl)amino)ethyl)-1H-pyrazol-1-yl)cyclopropyl)methyl)-3-hydroxypropanamide]: the figures for the IC50 on A2B receptor [2] and at A2A receptor were 20000 nM and 69 nM, respectively.

For `Cc1nn2c(N)c(C#N)c(NCCc3cccc(CO)n3)nc2c1Br` [Example 72, 7-amino-3-bromo-5-((2-(6-(hydroxymethyl)pyridine-2-yl)ethyl)amino)-2-methylpyrazolo[1,5-a]pyrimidine-6-carbonitrile], the concentration for half-maximal inhibition (IC50) on A2B receptor [2] was determined as 3120 nM; at A2A receptor, 362 nM.

Take `Cc1nn2c(N)c(C#N)c(NCCc3cccn(CCO)c3=O)nc2c1Cl` [Example 93, 7-amino-3-chloro-5-((2-(1-(2-hydroxyethyl)-2-oxo-1,2-dihydropyridin-3-yl)ethyl)amino)-2-methylpyrazolo[1,5-a]pyrimidine-6-carbonitrile]: the IC50 at A2B receptor [2] came to 1230 nM; at A2A receptor, 50 nM.
